Test results published in US12655150B2 (Cedilla Therapeutics, Inc., priority 2021, dated 2026).

What follows are molecules tested on NCI-H226 (assay: 72H TEAD Proliferation Assay (Cell Titer Glo 2.0)). Settings: Homo sapiens, NCI-H226, 72 h, CTG 2.0, cell line not given (NCI-H226 responsive, NCI-H28 non-responsive).
Type: cell-based
Procedure, shortened: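 NF2-deficient NCI-H226 mesothelioma cells, TEAD-dependent, treated 72 h; NF2-wild-type NCI-H28 serves as the TEAD-independent counter-screen for off-target cytotoxicity. Viable cells quantified by CellTiter-Glo 2.0 luminescence; background and time-zero signal subtracted, GI50 from nonlinear dose-response fit.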

| GI50 | SMILES |
| --- | --- |
| 1 to 5 µM | C=CC(=O)Nc1ccc2c(C(F)(F)F)cc(-c3ccc(C(C)(C)C)cc3)nc2c1 [I-112, N-(2-(4-(tert-Butyl)phenyl)-4-(trifluoromethyl)quinolin-7-yl)acrylamide] |
| 1 to 5 µM | COc1cc(-c2ccc(C(F)(F)F)cc2)nc2cc(NS(C)(=O)=O)ccc12 [I-383, N-(4-methoxy-2-(4-(trifluoromethyl)phenyl)quinolin-7-yl)methanesulfonamide] |
| 1 to 5 µM | COc1cc(-c2ccc(C(F)(F)F)cn2)nc2cc(C(=O)O)ccc12 [I-361, 4-methoxy-2-(5-(trifluoromethyl)pyridin-2-yl)quinoline-7-carboxylic acid] |
| 5 to 10 µM | COc1cc(-c2ccc(C(F)(F)F)cc2)nc2cc(-c3ccccn3)ccc12 [I-418, 4-Methoxy-7-(pyridin-2-yl)-2-(4-(trifluoromethyl)phenyl)quinoline] |
| ≤ 1 µM | COc1cc(-c2ccc(C(F)(F)F)cc2)nc2cc(C(=O)N[C@@H](CO)Cc3ccccc3)ccc12 [I-369, (R)—N-(1-hydroxy-3-phenylpropan-2-yl)-4-methoxy-2-(4-(trifluoromethyl)phenyl)quinoline-7-carboxamide] |
| ≤ 1 µM | Cc1nc(-c2ccc(C(F)(F)F)cc2)nc2cc(C(=O)N[C@H](C)CO)ccc12 [I-436, (R)—N-(1-hydroxypropan-2-yl)-4-methyl-2-(4-(trifluoromethyl)phenyl)quinazoline-7-carboxamide] |
| 1 to 5 µM | O=C(O)c1ccc2ccc(-c3ccc(C(F)(F)F)cc3)nc2c1 [I-403, 2-(4-(trifluoromethyl)phenyl)quinoline-7-carboxylic acid] |
| 1 to 5 µM | C[C@@H](CO)NC(=O)c1ccc2c(OCC3CC3)cc(-c3ccc(C(F)(F)F)cc3)nc2c1 [I-374, (S)-4-(cyclopropylmethoxy)-N-(1-hydroxypropan-2-yl)-2-(4-(trifluoromethyl)phenyl)quinoline-7-carboxamide] |
| 1 to 5 µM | COc1cc(-c2ccc(C(F)(F)F)cc2)nc2cc(NC(=O)[C@@H](CO)c3ccccc3)ccc12 [I-376, (R)-3-Hydroxy-N-(4-methoxy-2-(4-(trifluoromethyl)phenyl)quinolin-7-yl)-2-phenylpropanamide] |
| 1 to 5 µM | C[C@H](CO)NC(=O)c1ccc2ccc(-c3ccc(C(F)(F)F)cc3)nc2c1 [I-427, (R)—N-(1-hydroxypropan-2-yl)-2-(4-(trifluoromethyl)phenyl)quinoline-7-carboxamide] |
| ≤ 1 µM | Cc1cc(-c2ccc(C(F)(F)F)cc2F)nc2cc(C(=O)O)ccc12 [I-87, 2-(2-Fluoro-4-(trifluoromethyl)phenyl)-4-methylquinoline-7-carboxylic acid] |
| 1 to 5 µM | COCc1cc(-c2ccc(C(F)(F)F)cc2)nc2cc(C(=O)N[C@H](C)CO)ccc12 [I-271, (R)—N-(1-hydroxypropan-2-yl)-4-(methoxymethyl)-2-(4-(trifluoromethyl)phenyl)quinoline-7-carboxamide] |
| ≤ 1 µM | CCOc1nc(-c2ccc(C(F)(F)F)cc2)nc2cc(C(=O)O)ccc12 [I-432, 4-ethoxy-2-(4-(trifluoromethyl)phenyl)quinazoline-7-carboxylic acid] |
| 5 to 10 µM | N#Cc1cc(-c2ccc(C(F)(F)F)cc2)nc2cc(C(=O)O)ccc12 [I-401, 4-cyano-2-(4-(trifluoromethyl)phenyl)quinoline-7-carboxylic acid] |

The remaining lines, values behind:

| SMILES | GI50 |
| --- | --- |
| C=CC(=O)NC1CCN(c2cn3ccnc3c(-c3ccc(C(F)(F)F)cc3)n2)C1 (centres unmarked) [I-227, N-(1-(8-(4-(trifluoromethyl)phenyl)imidazo[1,2-a]pyrazin-6-yl)pyrrolidin-3-yl)acrylamide] | ≤ 1 µM |
| CC1(C)C2CN(c3nc4cc(C(=O)O)ccc4n4cccc34)CC21 (centres unmarked) [I-31, 4-(6,6-Dimethyl-3-azabicyclo[3.1.0]hexan-3-yl)pyrrolo[1,2-a]quinoxaline-7-carboxylic acid] | > 10 µM |
| C=CC(=O)NCc1nc(-c2ccc(C(F)(F)F)cc2)c2ncccc2n1 [I-305, N-((4-(4-(trifluoromethyl)phenyl)pyrido[3,2-d]pyrimidin-2-yl)methyl)acrylamide] | ≤ 1 µM |
| COc1cn2ccnc2c(-c2ccc(C(C)(C)C)cc2)n1 [I-149, 8-(4-(tert-Butyl)phenyl)-6-methoxyimidazo[1,2-a]pyrazine] | > 10 µM |
| C=CS(=O)(=O)NCc1cn2ccnc2c(-c2ccc(C(C)(C)C)cc2)n1 [I-141, N-((8-(4-(tert-Butyl)phenyl)imidazo[1,2-a]pyrazin-6-yl)methyl)ethenesulfonamide] | 1 to 5 µM |
| C=CC(=O)Nc1cn2cccc2c(-c2ccc(C(F)(F)F)cc2)n1 [I-96, N-(1-(4-(trifluoromethyl)phenyl)pyrrolo[1,2-a]pyrazin-3-yl)acrylamide] | ≤ 1 µM |
| O=C(O)c1ccc2c(c1)nc(N1CCC3(CCCOC3)CC1)c1cccn12 [I-26, 4-(2-Oxa-9-azaspiro[5.5]undecan-9-yl)pyrrolo[1,2-a]quinoxaline-7-carboxylic acid] | 5 to 10 µM |
| CC(C)(C)c1ccc(-c2nc3cc(C(=O)NCCO)ccc3n3cccc23)cc1 [I-185, 4-(4-(tert-butyl)phenyl)-N-(2-hydroxyethyl)pyrrolo[1,2-a]quinoxaline-7-carboxamide] | 1 to 5 µM |
| O=C(O)c1ccc2c(c1)nc(C1CCC1)c1nccn12 [I-71, 4-Cyclobutylimidazo[1,2-a]quinoxaline-7-carboxylic acid] | > 10 µM |
| C=CC(=O)NCc1cn2ccnc2c(-c2ccc(C(C)(C)C)cc2)n1 [I-140, N-((8-(4-(tert-butyl)phenyl)imidazo[1,2-a]pyrazin-6-yl)methyl)acrylamide] | ≤ 1 µM |
| C=CC(=O)NC(C)c1cn2ccnc2c(-c2ccc(C(F)(F)F)cc2)n1 (centres unmarked) [I-172, N-(1-(8-(4-(trifluoromethyl)phenyl)imidazo[1,2-a]pyrazin-6-yl)ethyl)acrylamide] | ≤ 1 µM |
| COC/C=C/C(=O)NCc1cn2ccnc2c(-c2ccc(C(F)(F)F)cc2)n1 [I-219, (E)-4-methoxy-N-((8-(4-(trifluoromethyl)phenyl)imidazo[1,2-a]pyrazin-6-yl)methyl)but-2-enamide] | 1 to 5 µM |
| CC(C)(C)C1CCN(c2nc3cc(C(=O)O)ccc3n3cccc23)CC1 [I-37, 4-(4-(tert-Butyl)piperidin-1-yl)pyrrolo[1,2-a]quinoxaline-7-carboxylic acid] | > 10 µM |
| C=CC(=O)NCc1cn2ccnc2c(Oc2ccc(C(F)(F)F)cc2)n1 [I-174, N-((8-(4-(trifluoromethyl)phenoxy)imidazo[1,2-a]pyrazin-6-yl)methyl)acrylamide] | ≤ 1 µM |
| CC(C)(C)c1ccc(-c2ncc3ccc(C(=O)O)cn23)cc1 [I-145, 3-(4-(tert-Butyl)phenyl)imidazo[1,5-a]pyridine-6-carboxylic acid] | > 10 µM |
| C=CC(=O)NCc1cn2cnnc2c(-c2ccc(C(F)(F)F)cc2)n1 [I-317, N-((8-(4-(trifluoromethyl)phenyl)-[1,2,4]triazolo[4,3-a]pyrazin-6-yl)methyl)acrylamide] | 1 to 5 µM |
| O=C(O)c1ccc2c(c1)nc(N1CCC(F)(F)C1)c1cccn12 [I-11, 4-(3,3-Difluoropyrrolidin-1-yl)pyrrolo[1,2-a]quinoxaline-7-carboxylic acid] | > 10 µM |
| O=C(O)c1ccc2c(c1)nc(N1CCC3(CCCC3)CC1)c1cccn12 [I-8, 4-(8-Azaspiro[4.5]decan-8-yl)pyrrolo[1,2-a]quinoxaline-7-carboxylic acid] | ≤ 1 µM |
